Reference: patent US9062041B2 (Bayer Intellectual Property GmbH, priority 2011, dated 2015)

How the values were obtained:
Assay type in all cases: cell-based
[1] = biological target: EP4 subtype of the human PGE2 receptor (Homo sapiens, UniProt P35408); test: cAMP antagonism test on the human EP4 receptor (HTRF cAMP detection); settings: selectivity towards hEP4, IC50 measured by cAMP antagonism test
Summary of the method: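 Cells expressing human EP4 preincubated 20 min at RT with compound (0.8 nM–16.5 μM), then stimulated with PGE2 (0.3 nM in 3× solution, with IBMX) 60 min at RT. After lysis, cAMP measured by HTRF competition (665/620 nm ratio); antagonism seen as rise in FRET signal.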

[2] = biological target: EP2 subtype of the human PGE2 receptor (Homo sapiens, UniProt P43116); test: cAMP antagonism test on the human EP2 receptor (HTRF cAMP detection); settings: hEP2 receptor, read-out: Antagonism hEP2 IC50
Summary of the method: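 Cells expressing human EP2 preincubated 20 min at RT with compound (0.8 nM–16.5 μM), then stimulated 60 min with PGE2 (3× solution 1.5 nM) in PBS-IBMX. After 20 min lysis, cAMP measured by competitive HTRF with cAMP-d2 and Eu cryptate anti-cAMP antibody (665/620 nm ratio).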

human PGD receptor = biological target: T1, human PGD receptor (Homo sapiens, UniProt Q13258); test: cAMP antagonism test on the human prostaglandin D receptor (HTRF cAMP detection); settings: selectivity towards hDP, IC50 measured by cAMP antagonism test
T1 sequence (Q13258 1-359): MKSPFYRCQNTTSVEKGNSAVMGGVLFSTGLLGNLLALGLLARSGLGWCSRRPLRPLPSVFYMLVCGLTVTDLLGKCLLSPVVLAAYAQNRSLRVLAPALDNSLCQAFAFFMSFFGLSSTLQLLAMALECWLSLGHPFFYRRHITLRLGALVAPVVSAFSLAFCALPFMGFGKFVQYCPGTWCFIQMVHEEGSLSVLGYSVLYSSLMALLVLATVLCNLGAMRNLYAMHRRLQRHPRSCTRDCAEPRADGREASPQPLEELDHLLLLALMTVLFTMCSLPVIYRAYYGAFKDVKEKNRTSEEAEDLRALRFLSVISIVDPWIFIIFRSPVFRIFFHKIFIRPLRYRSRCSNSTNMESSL
Summary of the method: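 Cells pre-mixed with cAMP-d2 were preincubated with compound (0.8 nM–16.5 μM) for 20 min at RT, then stimulated with 3× PGD2 solution (6 nM, in PBS-IBMX) for 30 min at RT. After lysis (20 min), HTRF read at 665/620 nm; antagonism seen as rise in FRET ratio.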

EP2 subtype of the human PGE2 receptor, sequence (P43116 whole entry): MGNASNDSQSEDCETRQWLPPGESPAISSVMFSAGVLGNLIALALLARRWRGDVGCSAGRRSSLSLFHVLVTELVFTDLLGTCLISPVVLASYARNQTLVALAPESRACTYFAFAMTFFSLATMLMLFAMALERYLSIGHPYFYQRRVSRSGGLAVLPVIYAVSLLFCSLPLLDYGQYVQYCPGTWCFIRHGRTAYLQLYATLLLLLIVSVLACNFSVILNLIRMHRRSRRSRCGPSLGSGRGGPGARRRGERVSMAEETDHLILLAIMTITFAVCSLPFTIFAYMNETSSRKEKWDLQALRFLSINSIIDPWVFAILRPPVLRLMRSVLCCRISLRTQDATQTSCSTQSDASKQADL
EP4 subtype of the human PGE2 receptor, sequence (P35408 whole entry): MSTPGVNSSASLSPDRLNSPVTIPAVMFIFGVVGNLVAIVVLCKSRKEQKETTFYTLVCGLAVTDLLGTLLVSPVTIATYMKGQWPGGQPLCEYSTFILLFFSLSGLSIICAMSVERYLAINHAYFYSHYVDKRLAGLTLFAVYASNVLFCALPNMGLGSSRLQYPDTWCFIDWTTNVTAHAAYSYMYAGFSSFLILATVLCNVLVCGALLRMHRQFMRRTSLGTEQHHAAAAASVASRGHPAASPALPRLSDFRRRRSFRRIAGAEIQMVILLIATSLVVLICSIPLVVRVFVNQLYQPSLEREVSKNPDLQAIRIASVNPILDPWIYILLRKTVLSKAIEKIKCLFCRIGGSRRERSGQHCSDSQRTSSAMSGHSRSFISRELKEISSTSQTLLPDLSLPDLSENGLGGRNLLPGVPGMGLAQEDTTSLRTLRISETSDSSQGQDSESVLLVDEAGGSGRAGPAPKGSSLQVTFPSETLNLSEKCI

SMILES | Selectivity hEP2/hEP4 [1] | IC50 [2] | Selectivity hEP2/hDP (human PGD receptor)
Cc1cc2nn(CC3CN(C(=O)c4ccc(S(F)(F)(F)(F)F)cc4)C3)cc2cc1C(=O)NCCSC(F)(F)F [Example 187, 6-methyl-2-({1-[4-(pentafluoro-λ^6-sulphanyl)benzoyl]azetidin-3-yl}methyl)-N-{2-[(trifluoromethyl)sulphanyl]ethyl}-2H-indazol-5-carboxamide] | xxx (xxx > 100) | 23.5 nM | xxx (xxx > 100)
Cc1c(C(=O)NCCOC(C)C)ccc2nn(CC3CCN(C(=O)c4ccc(Oc5ccc(F)cc5)cc4)CC3)cc12 [Example 98, 2-({1-[4-(4-fluoro-phenoxy)benzoyl]-piperidin-4-yl}-methyl)-N-(2-isopropoxyethyl)-4-methyl-2H-indazol-5-carboxamide] | xxx (xxx > 100) | 7.07 nM | xxx (xxx > 100)
Cc1c(C(=O)NCC2COCCO2)ccc2nn(CC3CCN(C(=O)c4ccc(Cl)cc4)CC3)cc12 (single isomer, unassigned) [Example 415, (S or R)-2-{[1-(4-chlorobenzoyl)piperidin-4-yl]methyl}-N-(1,4-dioxan-2-ylmethyl)-4-methyl-2H-indazol-5-carboxamide] | xxx (xxx > 100) | 21.3 nM | xxx (xxx > 100)
Cc1c(C(=O)NCCN2CCOCC2)ccc2nn(CC3CCN(C(=O)c4ccc(OC(F)(F)F)cc4)CC3)cc12 [Example 59, 4-methyl-N-(2-morpholinoethyl)-2-({1-[4-(trifluoromethoxy)benzoyl]piperidin-4-yl}methyl)-2H-indazol-5-carboxamide] | xx (xx: 10-100) | 758 nM | xx (xx: 10-100)
COCCNC(=O)c1ccc2nn(CC3CCN(C(=O)c4ccc(SC(F)(F)F)cc4)CC3)cc2c1C [Example 57, N-(2-methoxyethyl)-4-methyl-2-[(1-{4-[(trifluoromethyl)sulphanyl]benzoyl}piperidin-4-yl)methyl]-2H-indazol-5-carboxamide] | xxx (xxx > 100) | 5.29 nM | xxx (xxx > 100)
Cc1c(C(=O)NCCOC(F)(F)F)ccc2nn(CC3CCN(C(=O)c4ccc(Cl)cc4)CC3)cc12 [Example 107, 2-{[1-(4-chlorobenzoyl)piperidin-4-yl]methyl}-4-methyl-N-[2-(trifluoromethoxy)ethyl]-2H-indazol-5-carboxamide] | xxx (xxx > 100) | 11.4 nM | xxx (xxx > 100)
Cc1c(C(=O)NCC(F)(F)F)ccc2nn(CC3CCN(C(=O)c4ccc(Oc5ccc(F)cc5F)cc4)CC3)cc12 [Example 313, 2-({1-[4-(2,4-difluorophenoxy)benzoyl]piperidin-4-yl}methyl)-4-methyl-N-(2,2,2-trifluoroethyl)-2H-indazol-5-carboxamide] | xxx (xxx > 100) | 89.4 nM | xxx (xxx > 100)
CCOc1c(C(=O)NCCOC)ccc2nn(CC3CN(C(=O)c4ccc(Cl)cc4)C3)cc12 [Example 276, 2-{[1-(4-chlorobenzoyl)azetidin-3-yl]methyl}-4-ethoxy-N-(2-methoxyethyl)-2H-indazol-5-carboxamide] | xx (xx: 10-100) | 226 nM | xx (xx: 10-100)
Cc1c(C(=O)NCC(F)(F)F)ccc2nn(CC3CCN(C(=O)c4ccc(-c5ccc(C(F)(F)F)cc5)cc4)CC3)cc12 [Example 315, 4-methyl-N-(2,2,2-trifluoroethyl)-2-[(1-{[4′-(trifluoromethyl)biphenyl-4-yl]-carbonyl}piperidin-4-yl)methyl]-2H-indazol-5-carboxamide] | xxx (xxx > 100) | 43 nM | xxx (xxx > 100)
Cc1cc2nn(CC3CCN(C(=O)c4cccc(OC(F)(F)F)c4)CC3)cc2cc1C(=O)NCCN1CCOCC1 [Example 76, 6-methyl-N-(2-morpholinoethyl)-2-({1-[3-(trifluorometh-oxy)benzoyl]piperidin-4-yl}methyl)-2H-indazol-5-carboxamide] | xx (xx: 10-100) | 179 nM | xx (xx: 10-100)
COCCNC(=O)c1ccc2nn(CC3CCN(C(=O)c4ccc(C(C)(C)O)cc4)CC3)cc2c1C [Example 334, 2-({1-[4-(1-hydroxy-1-methylethyl)benzoyl]piperidin-4-yl}methyl)-N-(2-methoxyethyl)-4-methyl-2H-indazol-5-carboxamide] | xxx (xxx > 100) | 74.2 nM | xxx (xxx > 100)
COCCNC(=O)c1ccc2nn(CC3CCN(C(=O)c4nc(-c5ccccc5)no4)CC3)cc2c1C [Example 352, N-(2-methoxyethyl)-4-methyl-2-({1-[(3-phenyl-1,2,4-oxadiazol-5-yl)carbonyl]-piperidin-4-yl}methyl)-2H-indazol-5-carboxamide] | xxx (xxx > 100) | 21.7 nM | xxx (xxx > 100)
COCCNC(=O)c1ccc2nn(CC3CCN(C(=O)c4ccc(Oc5ccc(C#N)cn5)cc4)CC3)cc2c1C [Example 356, 2-[(1-{4-[(5-cyanopyridin-2-yl)oxy]benzoyl}piperidin-4-yl)methyl]-N-(2-methoxyethyl)-4-methyl-2H-indazol-5-carboxamide] | xxx (xxx > 100) | 63.6 nM | xxx (xxx > 100)
COCCNC(=O)c1ccc2nn(C[C@H]3CCN(C(=O)c4ccc(Cl)cc4)C3)cc2c1C [Example 222, 2-{[(S)-1-(4-chlorobenzoyl)pyrrolidin-3-yl]methyl}-N-(2-methoxyethyl)-4-methyl-2H-indazol-5-carboxamide] | xxx (xxx > 100) | 40.9 nM | xxx (xxx > 100)
COc1c(C(=O)NCCN2CCOCC2)ccc2nn(CC3CCN(C(=O)c4ccc(Cl)cc4)CC3)cc12 [Example 261, 2-{[1-(4-chlorobenzoyl)piperidin-4-yl]methyl}-4-methoxy-N-(2-morpholinoethyl)-2H-indazol-5-carboxamide] | xxx (xxx > 100) | 81 nM | xxx (xxx > 100)
Cc1c(C(=O)NCCOC2CCC2)ccc2nn(CC3CN(C(=O)c4ccc(OC(F)(F)F)cc4)C3)cc12 [Example 137, N-[2-(cyclobutyloxy)ethyl]-4-methyl-2-({1-[4-(trifluoromethoxy)benzoyl]azetidin-3-yl}methyl)-2H-indazol-5-carboxamide] | xxx (xxx > 100) | 7.65 nM | xxx (xxx > 100)
Cc1c(C(=O)NCCS(C)(=O)=O)ccc2nn(CC3CCN(C(=O)c4ccc(-c5ccc(F)cc5F)cc4)CC3)cc12 [Example 398, 2-({1-[(2′,4′-difluorobiphenyl-4-yl)carbonyl]piperidin-4-yl}methyl)-N-(2-mesylethyl)-4-methyl-2H-indazol-5-carboxamide] | xxx (xxx > 100) | 18.2 nM | xxx (xxx > 100)
Cc1c(C(=O)NCCO)ccc2nn(CC3CCN(C(=O)c4ccc(Cl)cc4)CC3)cc12 [Example 252, 2-{[1-(4-chlorobenzoyl)piperidin-4-yl]methyl}-N-(2-hydroxyethyl)-4-methyl-2H-indazol-5-carboxamide] | xx (xx: 10-100) | 295 nM | xx (xx: 10-100)
COCCNC(=O)c1ccc2nn(CC3CCN(C(=O)c4ccc(-c5cncc(Cl)c5)cc4)CC3)cc2c1C [Example 385, 2-({1-[4-(5-chloropyridin-3-yl)benzoyl]piperidin-4-yl}methyl)-N-(2-methoxy-ethyl)-4-methyl-2H-indazol-5-carboxamide] | xxx (xxx > 100) | 13.1 nM | xxx (xxx > 100)
